# Target: T1, human PAD4 (Homo sapiens, UniProt Q9UM07)
# T1 construct: human PAD4 (NM_012387), A2-P663, was PCR amplified; His-SUMO (N, cleaved yes); made in house; host or cells: E. coli BL21(DE3)
# Assay: In vitro PAD4 BAEE biochemical assay
# Details: BAEE substrate 3 mM, 5 nM PAD4, 2 mM calcium chloride; geometric mean of multiple experiments
# Procedure, shortened: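 Recombinant human PAD4 (5 nM final) with 2 mM CaCl2 was preincubated with compound 30 min at 25 °C in MOPS buffer pH 7.6, then reacted with 3 mM BAEE for 2 h at 25 °C. After EDTA stop, released ammonia was detected by o-phthalaldehyde/DTT fluorescence (ex 405/em 535 nm); IC50 from four-parameter fit, geometric mean.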
# T1 sequence (Q9UM07 2-663): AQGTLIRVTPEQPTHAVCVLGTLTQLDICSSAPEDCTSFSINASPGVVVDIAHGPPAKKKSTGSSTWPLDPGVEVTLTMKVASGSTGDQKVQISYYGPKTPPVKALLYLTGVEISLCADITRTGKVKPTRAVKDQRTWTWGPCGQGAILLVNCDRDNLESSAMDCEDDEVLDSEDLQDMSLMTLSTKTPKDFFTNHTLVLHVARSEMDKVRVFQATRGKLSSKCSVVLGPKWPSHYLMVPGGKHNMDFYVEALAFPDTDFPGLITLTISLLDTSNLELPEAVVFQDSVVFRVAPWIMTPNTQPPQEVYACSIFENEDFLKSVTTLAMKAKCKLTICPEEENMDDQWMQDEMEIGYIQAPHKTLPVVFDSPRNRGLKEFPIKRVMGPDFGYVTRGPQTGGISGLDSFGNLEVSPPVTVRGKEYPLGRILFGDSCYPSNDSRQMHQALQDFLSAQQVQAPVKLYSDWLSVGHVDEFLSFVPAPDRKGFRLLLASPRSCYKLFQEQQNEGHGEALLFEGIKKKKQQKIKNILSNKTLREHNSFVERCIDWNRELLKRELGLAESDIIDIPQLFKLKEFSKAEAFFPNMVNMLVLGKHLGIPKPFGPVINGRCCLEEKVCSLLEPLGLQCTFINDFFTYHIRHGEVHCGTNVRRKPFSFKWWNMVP
row,IC50,SMILES
1,71 nM,"COc1cc(C(=O)N2CC[C@@H](OC)[C@@H](N)C2)cc2nc(-c3cc4ccc5nc4n3CCCCCc3ccnc(C4CC4)c3C(=O)N[C@@H]5C)n(C)c12 [Example 663, (2~{R})-17-[5-[(3~{S),4~ {R})-3-amino-4-methoxy-piperidine-1-carbonyl]-7-methoxy-1-methyl-benzimidazol-2-yl]-6-cyclopropyl-2-methyl-3,7,16,22-tetrazatetracyclo[14.5.2.0^ {5,10}.0^{19,23}] tricosa-1(22),5,7,9,17,19(23), 20-heptaen-4-one]"
2,76 nM,"COc1cc(C(=O)N2C[C@H](N)CC[C@@H]2C)cc2nc(-c3cc4ccc5nc4n3CCCCCCC(C)(C)C(=O)N[C@@H]5C)n(C)c12 [Example 5, (11~{R})-17-[5-[(2~{S},5~{R})-5-amino-2-methyl-piperidine-1-carbonyl]-7-methoxy-1-methyl-benzimidazol-2-yl]-8,8,11-trimethyl-1,10,19-triazatricyclo[10.5.2.0^{15,18}]nonadeca-12(19),13,15(18),16-tetraen-9-one]"
3,14 nM,"COc1cc(C(=O)N2CCC[C@@H](N)[C@H]2C)cc2nc(-c3cc4ccc5nc4n3CCCCCc3cncc(F)c3C(=O)N[C@@H]5C)n(C)c12 [Example 657, (2~{R})-17-[5-[(2~{R},3~{R})-3-amino-2-methyl-piperidine-1-carbonyl]-7-methoxy-1-methyl-benzimidazol-2-yl]-6-fluoro-2-methyl-3,8,16,22-tetrazatetracyclo [14.5.2.0^{5,10}.0^{19,23}] tricosa-1(22),5,7,9,17,19(23), 20-heptaen-4-one]"
4,479 nM,"COc1cc(C(=O)N2C[C@@H]3C[C@@H]3[C@@H](N)C2)cc2nc(-c3cc4ccc5nc4n3CCCCCCC(C)(C)C(=O)N[C@@H]5C)n(C)c12 [Example 542, (11~{R})-17-[5-[(1~ {R},5~{R},6~{S})-5-amino-3-azabicyclo [4.1.0]heptane-3-carbonyl]-7-methoxy-1-methyl-benzimidazol-2-yl]-8,8,11-trimethyl-1,10,19-triazatricyclo [10.5.2.0^{15,18}]nonadeca-12(19),13,15(18), 16-tetraen-9-one]"
5,102 nM,"COc1cc(C(=O)N2CC[C@@H](OC)[C@@H](N)C2)cc2nc(-c3cc4ccc5nc4n3CC(F)(F)CCCCC3(CC(F)(F)C3)C(=O)N[C@@H]5C)n(C)c12 [Example 821, (11~{R})-17-[5-[(3~{S),4~ {R})-3-amino-4-methoxy-piperidine-1-carbonyl]-7-methoxy-1-methyl-benzimidazol-2-yl]-1′,1′,3,3-tetrafluoro-11-methyl-spiro[1,10,19-triazatricyclo[10.5.2.0^ {15,18}]nonadeca-12 (19),13,15(18),16-tetraene-8,3′-cyclobutane]-9-one]"
6,21 nM,"COc1cc(C(=O)N2[C@H]3CC[C@@H]2[C@H](N)C3)cc2nc(-c3cc4ccc5nc4n3CCCCCCCC(=O)N3CCC[C@H]53)n(C)c12 [Example 125, (2˜{R})-16-[5-[(1˜{R},2˜{R},4˜{S})-2-amino-7-azabicyclo[2.2.1]heptane-7-carbonyl)-7-methoxy-1-methyl-benzimidazol-2-yl]-6,15,21-triazatetracyclo[13.5.2.0^{2,6}.0^{18,22}]docosa-1(21),16,18(22),19-tetraen-7-one]"
7,18 nM,"C[C@H]1NC(=O)c2ccc(Cl)nc2CC[C@H]2C[C@H]2Cn2c(-c3nc4cc(C(=O)N5C[C@H](N)[C@@H]6CC[C@H]5C6)cc(F)c4n3C3CC3)cc3ccc1nc32 [Example 710, (3~{R),5~{S},16~{R})-22-[5-[(1~{S},4~{R},5~{R})-4-amino-2-azabicyclo[3.2.1]octane-2-carbonyl]-1-cyclopropyl-7-fluoro-benzimidazol-2-yl]-10-chloro-16-methyl-1,9,15,24-tetrazapentacyclo[15.5.2.0^ {3,5}.0^{8,13}.0^{20,23}] tetracosa-8(13),9,11,17(24), 18,20(23),21-heptaen-14-one]"

# — patent US11976083B2, “Inhibitors of peptidylarginine deiminases” (Gilead Sciences, Inc., priority 2020, dated 2024)
